Laboratory results published in patent US4888174A, “Insecticidal polymeric compositions” (priority 1988, dated 1989).

Assay: Absorption rate of chlorpyrifos onto LDPE and ethylene/acrylic acid (EAA) pellets
Type: physicochemical
Details: 85° C.; for Actual Weight % Chlorpyrifos Found in Copolymer EAA: EAA (Primacor 1430) pellets; for % of Chlorpyrifos Absorbed onto Copolymer EAA: EAA pellets, relative to 0.88% maximum; for Actual Weight % Chlorpyrifos Found in LDPE / % of Chlorpyrifos Absorbed onto LDPE: LDPE pellets; for % of Chlorpyrifos Absorbed onto LDPE: relative to 0.90% maximum
Method: A constant temperature oven is set at 85° C. by using a thermowatch controller and an infrared heat lamp. A wide mouth quart jar containing 247.5 g of 749 low density polyethylene (LDPE) or an equivalent amount of Primacor® 1430 pellets is placed into the oven and left overnight. Primacor® is a copolymer of ethylene/acrylic acid (EAA) containing 9 percent (%) by weight acrylic acid. Two and one-half grams of liquid Dursban® insecticide heated to 50° C. are added to each jar to give a calculated concentration of 1 percent chlorpyrifos in the polymer. The Dursban® insecticide contains 99 percent chlorpyrifos and 1 percent inert ingredients. The jar is shaken initially, returned to the oven, and then removed every 5 minutes and reshaken. A first sample of 10 pellets is taken from the jar after 15 minutes. The pellets are placed on an ice water bath for 1 minute, removed with tweezers and placed into a 50 ml beaker. The pellets are rinsed with 5 mls of acetone to remove excess water. The pellets are rinsed with 5 mls of methylene chloride to remove chlorpyrifos coated on the pellet surface. The solvent is decanted after each rinse and the pellets are dried by blowing nitrogen over them for three minutes. The pellets are weighed on an analytical balance, placed into a 2 ounce bottle and the chlorpyrifos absorbed by the pellets is extracted by shaking the pellets with 20 mls of chloroform on an automatic shaker overnight. The chloroform extract, after appropriate dilution, is measured at 292 nanometers wave length on an ultraviolet (UV) spectrophotometer. The absorbence of the sample extract is compared to a standard curve of absorbence from a known concentration of chlorpyrifos in chloroform. The absorption rate for the Primacor® 1430 pellets is determined in the same manner as the LDPE.

[1] = assumed, based on a time of 180 minutes

CCOP(=S)(OCC)Oc1nc(Cl)c(Cl)cc1Cl [Chlorpyrifos, O,O-diethyl-3,5,6-trichloro-2-pyridyl phosphorothioate]
Actual Weight % Chlorpyrifos Found in Copolymer EAA (0 minutes): 0.0 Weight %
Actual Weight % Chlorpyrifos Found in Copolymer EAA (15 minutes): 0.71 Weight %
Actual Weight % Chlorpyrifos Found in Copolymer EAA (30 minutes): 0.80 Weight %
Actual Weight % Chlorpyrifos Found in Copolymer EAA (45 minutes): 0.85 Weight %
Actual Weight % Chlorpyrifos Found in Copolymer EAA (60 minutes): 0.84 Weight %
Actual Weight % Chlorpyrifos Found in Copolymer EAA (90 minutes): 0.83 Weight %
Actual Weight % Chlorpyrifos Found in Copolymer EAA (120 minutes): 0.95 Weight %
Actual Weight % Chlorpyrifos Found in Copolymer EAA (150 minutes): 0.86 Weight %
Actual Weight % Chlorpyrifos Found in Copolymer EAA (180 minutes): 0.88 Weight %
% of Chlorpyrifos Absorbed onto Copolymer EAA (0 minutes): 0.0%
% of Chlorpyrifos Absorbed onto Copolymer EAA (15 minutes): 80.7%
% of Chlorpyrifos Absorbed onto Copolymer EAA (30 minutes): 90.9%
% of Chlorpyrifos Absorbed onto Copolymer EAA (45 minutes): 96.6%
% of Chlorpyrifos Absorbed onto Copolymer EAA (60 minutes): 95.5%
% of Chlorpyrifos Absorbed onto Copolymer EAA (90 minutes): 94.3%
% of Chlorpyrifos Absorbed onto Copolymer EAA (120 minutes): 108.0%
% of Chlorpyrifos Absorbed onto Copolymer EAA (150 minutes): 97.7%
% of Chlorpyrifos Absorbed onto Copolymer EAA (180 minutes): 100.0%
Actual Weight % Chlorpyrifos Found in LDPE (0 minutes): 0.0 Weight %
% of Chlorpyrifos Absorbed onto LDPE (0 minutes): 0.0%
Actual Weight % Chlorpyrifos Found in LDPE (15 minutes): 0.64 Weight %
% of Chlorpyrifos Absorbed onto LDPE (15 minutes): 71.1%
Actual Weight % Chlorpyrifos Found in LDPE (30 minutes): 0.76 Weight %
% of Chlorpyrifos Absorbed onto LDPE (30 minutes): 84.4%
Actual Weight % Chlorpyrifos Found in LDPE (45 minutes): 0.86 Weight %
% of Chlorpyrifos Absorbed onto LDPE (45 minutes): 95.6%
Actual Weight % Chlorpyrifos Found in LDPE (60 minutes): 0.91 Weight %
% of Chlorpyrifos Absorbed onto LDPE (60 minutes): 101.1%
Actual Weight % Chlorpyrifos Found in LDPE (90 minutes): 0.89 Weight %
% of Chlorpyrifos Absorbed onto LDPE (90 minutes): 98.9%
Actual Weight % Chlorpyrifos Found in LDPE (120 minutes): 0.92 Weight %
% of Chlorpyrifos Absorbed onto LDPE (120 minutes): 102.2%
Actual Weight % Chlorpyrifos Found in LDPE (150 minutes): 1.07 Weight %
% of Chlorpyrifos Absorbed onto LDPE (150 minutes): 118.9%
Actual Weight % Chlorpyrifos Found in LDPE (180 minutes): 0.90 Weight %
% of Chlorpyrifos Absorbed onto LDPE (180 minutes): 100.0%
maximum absorption by the Copolymer EAA [1]: 0.88 % by weight
maximum absorption of chlorpyrifos by the LDPE [1]: 0.90 % by weight
